Laboratory results: patent publication US10117871B2, “3-hydroxypyrimidine-2,4-dione-5-carboxamides as potent inhibitors of HIV” (Regents of the University of Minnesota, priority 2015, dated 2018)
Read-outs that look alike come from different tables or passages of the source.

Key:
[1] = biological target: T1, HIV-1 integrase (Human immunodeficiency virus type 1 group M subtype B, UniProt P04585); assay: HIV-1 integrase strand transfer (INST) assay; assay type: biochemical
T1 construct: HIV integrase was expressed and purified as previously reported; made in house; host or cells: Escherichia coli
Experimental: HIV integrase was expressed and purified as previously reported.^43 Inhibition assays were performed using a modified protocol of a reported method.^43 Briefly, 2.1 μL of compound suspended in DMSO was placed in duplicate into a Black 96 well non-binding plate (coming 3991). Compounds were plated in duplicate to a final concentration of 0.13-100 μM. To each well of the plate 186.9 μL of reaction mixture without DNA substrate was added (10 mM HEPES pH 7.5, 10% glycerol w/v, 10 mM MnCl2, 1 mM DTT, 1 μM integrase). The enzyme was incubated with inhibitor for 10 min at 25° C. after which the reaction was initiated by the addition of 21 μL of 500 nM oligo (5′ biotin […] annealed with […] 3′ Cy5). Reactions were incubated at 37° C. for 30 min and then quenched by the addition of 5.2 μL 500 mM EDTA. Each reaction was moved (200 μL) to a MultiScreen HTS PCR plate (Millipore MSSLBPC10) containing 20 μL streptavidin agarose beads (Life Technologies S951) and incubated with shaking for 30 min. A vacuum manifold was used to remove the reaction mixture and the beads were similarly washed 3 times with wash buffer (0.05% SDS, 1 mM EDTA in PBS). The plates were further washed 3 times with 200 μL 50 mM NaOH to denature DNA not covalently linked to the biotin modification. For each denaturation step the plate was incubated with shaking at 25° C. for 5 min and the NaOH was removed by centrifugation at 1000 g for 1 min. The reaction products were eluted from the beads by the addition of 150 μL formamide. The plate was incubated at 25° C. for 10 min and read directly at 635/675 in a SpectraMax i3 plate reader (Molecular Devices). Expression and purification of the recombinant IN in Escherichia coli were performed as previously reported^39, 44 with addition of 10% glycerol to all buffers. Preparation of oligonucleotide substrates has been described.^45 Integrase reactions were performed in 10 μL with 400 nM of recombinant IN, 20 nM of 5′-end [^32P]-labeled oligonucleotide substrate and inhibitors at various concentrations. Solutions of 10% DMSO without inhibitors were used as controls. Reactions were incubated at 37° C. (60 minutes) in buffer containing 50 mM MOPS, pH 7.2, 7.5 mM MgCl2, and 14.3 mM 2-mercaptoethanol. Reactions were stopped by addition of 10 μL of loading dye (10 mM EDTA, 98% deionized formamide, 0.025% xylene cyanol and 0.025% bromophenol blue). Reactions were then subjected to electrophoresis in 20% polyacrylamide-7 M urea gels. Gels were dried and reaction products were visualized and quantitated with a Typhoon 8600 (GE Healthcare, Little Chalfont, Buckinghamshire, UK). Densitometric analyses were performed using ImageQuant from Molecular Dynamics Inc. The concentrations at which enzyme activity was reduced by 50% (IC50) were determined using “Prism” software (GraphPad Software, San Diego, Calif.) for nonlinear regression to fit dose-response data to logistic curve models.

[2] = test system: HIV-1IIIB; assay: HIV-1 cytoprotection (CPE reduction) antiviral assay; assay type: cell-based; conditions: for inhibition at 10 µM: read-out: CPE reduction %; for antiviral activity, in words: single concentration 10 μM, CPE assay
Experimental: (§1) The antiviral activity of newly synthesized analogues of chemotype 7 was evaluated against HIV-1IIIB in CEM-SS cells using an assay based on viral cytopathic effect (CPE). In this assay, the reduction of CPE was used to indicate the antiviral activity of a compound.
Briefly virus and cells were mixed in the presence of test compound and incubated for 6 days. […] Each assay plate contained cell control wells (cells only), virus control wells (cells plus virus), compound toxicity control wells (cells plus compound only), compound colorimetric control wells (compound only) as well as experimental wells (compound plus cells plus virus). Cytoprotection and compound cytotoxicity were assessed by MTS (CellTiter® 96 Reagent, Promega, Madison Wis.) and the EC50 (concentration inhibiting virus replication by 50%), CC50 (concentration resulting in 50% cell death) and a calculated TI (therapeutic index CC50/EC50) were provided. Each assay included AZT as a positive control.

[3] = test system: CEM-SS cells; assay: Compound cytotoxicity (MTS) in the HIV cytoprotection assay; assay type: cell-based; conditions: for Cell viability %: 10 μM, CEM-SS cells; for CC50: Concentration resulting in 50% cell death
Experimental: as §1
Briefly virus and cells were mixed in the presence of test compound and incubated for 6 days. […] Each assay plate contained cell control wells (cells only), virus control wells (cells plus virus), compound toxicity control wells (cells plus compound only), compound colorimetric control wells (compound only) as well as experimental wells (compound plus cells plus virus). […] Each assay included AZT as a positive control.

[4] = Human immunodeficiency virus 1, 10 μM, HIV-1IIIB in CEM-SS cells
[5] = Human immunodeficiency virus 1, CEM-SS
[6] = Human immunodeficiency virus 1, summary of Table 2, read-out: EC50

| Structure (SMILES) | IC50 ([1]; read-out: INST IC50) [nM] | inhibition at 10 µM [2, 4] [%] | Cell viability % [3] [%] | inhibition at 10 µM [2, 5] [%] | also measured |
| --- | --- | --- | --- | --- | --- |
| CCNc1[nH]c(=O)n(O)c(=O)c1C(=O)NCCc1ccccc1 [Compound 7-xxvi, 1-(Hydroxy)-4-(ethylamino)-1,2,3,6-tetrahydro-2,6-dioxo-N-phenethylpyrimidine-5-carboxamide] | 100 ± 30 | 99 | 87 | – | antiviral activity, in words [2]: largely retained |
| CNc1[nH]c(=O)n(O)c(=O)c1C(=O)NCc1cccc(F)c1 [Compound 7-xii, N-(3-Fluorobenzyl)-1-(hydroxy)-1,2,3,6-tetrahydro-4-(methylamino)-2,6-dioxopyrimidine-5-carboxamide] | 250 ± 48 | 100 | 95 | – | – |
| CCNc1[nH]c(=O)n(OCc2ccccc2)c(=O)c1C(=O)N(C)Cc1ccc(F)cc1 [Compound 15, 3-(Benzyloxy)-6-(ethylamino)-N-(4-fluorobenzyl)-N-methyl-2,4-dioxo-1,2,3,4-tetrahydropyrimidine-5-carboxamide] | 7000 ± 3300 | – | – | – | – |
| CCNc1[nH]c(=O)n(O)c(=O)c1C(=O)NCc1ccc(F)c(F)c1 [Compound 7-xx, N-(3,4-Difluorobenzyl)-1-(hydroxy)-4-(ethylamino)-1,2,3,6-tetrahydro-2,6-dioxopyrimidine-5-carboxamide] | 77 ± 11 | – | 100 | 100 | IC50 ([1]; read-out: IC50 (ST)): 21 to 77 nM; EC50 ([2]; Human immunodeficiency virus 1): 49 nM; EC50 [2, 6]: 15 to 61 nM; CC50 [3]: 21 µM |
| O=C(NCc1ccccc1)c1c(Nc2ccccc2)[nH]c(=O)n(O)c1=O [Compound 7-i, N-Benzyl-1-(hydroxy)-1,2,3,6-tetrahydro-2,6-dioxo-4-(phenylamino)pyrimidine-5-carboxamide] | – | – | 21 | 0 | – |
| CC(C)(C)Nc1[nH]c(=O)n(O)c(=O)c1C(=O)NCc1ccccc1 [Compound 7-x, 4-(tert-Butylamino)-N-benzyl-1-(hydroxy)-1,2,3,6-tetrahydro-2,6-dioxopyrimidine-5-carboxamide] | 81 ± 15 | 98 | 91 | – | – |
| CCNc1[nH]c(=O)n(O)c(=O)c1C(=O)NCc1ccc(C)c(F)c1 [Compound 7-xxiv, N-(3-Fluoro-4-methylbenzyl)-1-(hydroxy)-4-(ethylamino)-1,2,3,6-tetrahydro-2,6-dioxopyrimidine-5-carboxamide] | 51 ± 13 | 100 | 100 | – | EC50 ([2]; Human immunodeficiency virus 1): 150 nM; CC50 [3]: 20 µM |
| O=C(NCc1ccccc1)c1c(NC2CC2)[nH]c(=O)n(O)c1=O [Compound 7-ix, N-Benzyl-1-(hydroxy)-4-(cyclopropylamino)-1,2,3,6-tetrahydro-2,6-dioxopyrimidine-5-carboxamide] | 209 ± 77 | 98 | 90 | – | – |
| CCNc1[nH]c(=O)n(O)c(=O)c1C(=O)NCc1cccc(F)c1 [Compound 7-xv, N-(3-Fluorobenzyl)-1-(hydroxy)-4-(ethylamino)-1,2,3,6-tetrahydro-2,6-dioxopyrimidine-5-carboxamide] | 68 ± 7 | 100 | 90 | – | – |
| CCNc1[nH]c(=O)n(O)c(=O)c1C(=O)NCc1ccc(F)cc1 [Compound 7-xvi, N-(4-Fluorobenzyl)-1-(hydroxy)-4-(ethylamino)-1,2,3,6-tetrahydro-2,6-dioxopyrimidine-5-carboxamide] | 49 ± 4 | – | 99 | 100 | IC50 ([1]; read-out: IC50 (ST)): 21 to 77 nM; EC50 ([2]; Human immunodeficiency virus 1): 33 nM; EC50 [2, 6]: 15 to 61 nM; CC50 [3]: 19 µM |
| CNc1[nH]c(=O)n(O)c(=O)c1C(=O)NCc1ccccc1 [Compound 7-v, N-Benzyl-1-(hydroxy)-1,2,3,6-tetrahydro-4-(methylamino)-2,6 dioxopyrimidine-5-carboxamide] | 80 ± 7 | 100 | 98 | – | EC50 ([2]; Human immunodeficiency virus 1): 830 nM; CC50 [3]: 58 µM |
| CCNc1[nH]c(=O)n(O)c(=O)c1C(=O)NCc1ccccc1 [Compound 7-vi, N-Benzyl-1-(hydroxy)-4-(ethylamino)-1,2,3,6-tetrahydro-2,6-dioxopyrimidine-5-carboxamide] | 33 ± 4 | – | 100 | 100 | IC50 ([1]; read-out: IC50 (ST)): 21 to 77 nM; EC50 ([2]; Human immunodeficiency virus 1): 61 nM; EC50 [2, 6]: 15 to 61 nM; CC50 [3]: 23 µM |
| O=C(NCc1cccc(F)c1)c1c(Nc2ccc(-c3ccccc3)cc2)[nH]c(=O)n(O)c1=O [Compound 7-iii, N-(3-Fluorobenzyl)-1-(hydroxy)-1,2,3,6-tetrahydro-2,6-dioxo-4-(biphenylamino)pyrimidine-5-carboxamide] | > 100000 | 0 | 8.7 | – | – |
| CC(C)Nc1[nH]c(=O)n(O)c(=O)c1C(=O)NCc1ccccc1 [Compound 7-viii, N-Benzyl-1-(hydroxy)-1,2,3,6-tetrahydro-4-(isopropylamino)-2,6-dioxopyrimidine-5-carboxamide] | 150 ± 34 | 0 | 17 | – | antiviral activity, in words [2]: inactive; cytotoxicity, in words ([3]; single concentration 10 μM): cytotoxic |
| CCNc1[nH]c(=O)n(O)c(=O)c1C(=O)NCCCl [Compound 7-xxvii, 1-(Hydroxy)-N-(2-chloroethyl)-4-(ethylamino)-1,2,3,6-tetrahydro-2,6-dioxopyrimidine-5-carboxamide] | – | – | 100 | 5.1 | inhibition of ST in the ST assay, in words [1]: none; antiviral activity, in words [2]: completely abrogated antiviral activity |
| O=C(NCc1ccccc1)c1c(Nc2ccc(-c3ccccc3)cc2)[nH]c(=O)n(O)c1=O [Compound 7-ii, N-Benzyl-1-(hydroxy)-1,2,3,6-tetrahydro-2,6-dioxo-4-(biphenylamino)pyrimidine-5-carboxamide] | – | – | 13 | 0 | – |
| Nc1[nH]c(=O)n(O)c(=O)c1C(=O)NCc1ccccc1 [Compound 7-xi, 4-Amino-N-benzyl-1-(hydroxy)-1,2,3,6-tetrahydro-2,6-dioxopyrimidine-5-carboxamide] | 900 ± 290 | 99 | 100 | – | – |
| O=C(NCc1ccccc1)c1c(O)n(O)c(=O)[nH]c1=O [Compound 16, N-Benzyl-1,6-dihydroxy-2,4-dioxo-1,2,3,4-tetrahydropyrimidine-5-carboxamide] | 37000 ± 21000 | – | – | – | – |
| CCCNc1[nH]c(=O)n(O)c(=O)c1C(=O)NCc1cccc(Cl)c1F [Compound 7-xxviii, N-(3-Chloro-2-fluorobenzyl)-1-(hydroxy)-1,2,3,6-tetrahydro-2,6-dioxo-4-(propylamino)pyrimidine-5-carboxamide] | – | 33 | 48 | – | – |
| O=C(NCc1ccc(F)cc1)c1c2n(c(=O)n(O)c1=O)CCCN2 [Compound 17, N-(4-Fluorobenzyl)-7-(hydroxy)-2,3,4,6,7,8-hexahydro-6,8-dioxo-1H-pyrimido[1,6-a]pyrimidine-9-carboxamide] | 430 ± 130 | – | – | – | – |
